Experimental data reported in PubChem BioAssay AID328 (DTP/NCI, 2004).
“And” between values parts separate entries of the source, which are not always exact repeats. Identical values can stand only once. Toxic doses and inconclusive results are not listed.

Tested on: BDF1 mice, P388 leukemia ip, median survival T/C
Test: NCI In Vivo Anticancer Drug Screen. Data for tumor model P388 Leukemia (intraperitoneal) in B6D2F1 (BDF1) mice
Details: endpoint: median survival time, higher = longer survival
Procedure, shortened: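 Survival ratio, drug arm over vehicle arm, in mice with a transplanted tumour.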

[1] = dose: 6.25 mg/kg/injection, schedule: Q01DX009 (ip), vehicle: water
[2] = dose: 12.5 mg/kg/injection, schedule: Q01DX009 (ip), vehicle: water
[3] = dose: 25.0 mg/kg/injection, schedule: Q01DX009 (ip), vehicle: water
[4] = dose: 12.5 mg/kg/injection, schedule: Q01DX009 (ip), vehicle: saline
[5] = dose: 25.0 mg/kg/injection, schedule: Q01DX009 (ip), vehicle: saline
[6] = dose: 25.0 mg/kg/injection, schedule: Q04DX003 (ip), vehicle: saline
[7] = dose: 50.0 mg/kg/injection, schedule: Q01DX009 (ip), vehicle: saline
[8] = dose: 50.0 mg/kg/injection, schedule: Q04DX003 (ip), vehicle: saline
[9] = dose: 100.0 mg/kg/injection, schedule: Q04DX003 (ip), vehicle: saline
[10] = dose: 50.0 mg/kg/injection, schedule: Q01DX009 (ip), vehicle: saline with Tween-80
[11] = dose: 200.0 mg/kg/injection, schedule: Q01DX009 (ip), vehicle: saline with Tween-80
[12] = dose: 100.0 mg/kg/injection, schedule: Q01DX009 (ip), vehicle: Klucel (hydroxypropylcellulose) (HPC)
[13] = dose: 100.0 mg/kg/injection, schedule: Q04DX003 (ip), vehicle: saline with Tween-80
[14] = dose: 200.0 mg/kg/injection, schedule: Q04DX003 (ip), vehicle: saline with Tween-80
[15] = dose: 400.0 mg/kg/injection, schedule: Q04DX003 (ip), vehicle: saline with Tween-80
[16] = dose: 50.0 mg/kg/injection, schedule: Q01DX009 (ip), vehicle: Klucel (hydroxypropylcellulose) (HPC)
[17] = dose: 100.0 mg/kg/injection, schedule: Q01DX009 (ip), vehicle: saline with Tween-80

Q: Which T/C (dose: 3.12 mg/kg/injection, schedule: Q01DX009 (ip), vehicle: water) does the source give for `C#CC1(OCC(O)CO)CCCCC1` (centres undefined) here?
A: 107 % of control

Q: And the T/C [1]?
A: 110 % of control

Q: And the T/C [2]?
A: 100 % of control

Q: And the T/C [3]?
A: 110 % of control

Q: What about the T/C (dose: 50.0 mg/kg/injection, schedule: Q01DX009 (ip), vehicle: water) of the same compound?
A: 94 % of control

Q: And the T/C (dose: 100.0 mg/kg/injection, schedule: Q01DX009 (ip), vehicle: water)?
A: 103 % of control

Q: What about the T/C (dose: 200.0 mg/kg/injection, schedule: Q01DX009 (ip), vehicle: water) of the same compound?
A: 103 % of control

Q: What about the T/C (dose: 400.0 mg/kg/injection, schedule: Q01DX009 (ip), vehicle: water) of the same compound?
A: 118 % of control

Q: What does the source list for `CC1C/C(=C\NC(N)=O)C(=O)O1` (centres undefined)?
A: T/C (dose: 100.0 mg/kg/injection, schedule: Q04DX003 (ip), vehicle: water): 103 % of control; T/C (dose: 200.0 mg/kg/injection, schedule: Q04DX003 (ip), vehicle: water): 102 % of control; T/C (dose: 400.0 mg/kg/injection, schedule: Q04DX003 (ip), vehicle: water): 103 % of control

Q: What does the source list for `COc1cc2c[n+](C)c3c4cc5c(cc4ccc3c2cc1OC)OCO5`?
A: T/C (dose: 1.0 mg/kg/injection, schedule: Q01DX009 (ip), vehicle: water): 150 % of control; T/C (dose: 4.0 mg/kg/injection, schedule: Q01DX009 (ip), vehicle: saline): 161 % of control; T/C (dose: 5.0 mg/kg/injection, schedule: Q01DX009 (ip), vehicle: saline): 185 % of control; T/C [1]: 182 % of control; T/C (dose: 8.0 mg/kg/injection, schedule: Q01DX009 (ip), vehicle: saline): 176 % of control; T/C (dose: 10.0 mg/kg/injection, schedule: Q01DX005 (ip), vehicle: saline): 154 % of control; T/C (dose: 10.0 mg/kg/injection, schedule: Q01DX009 (ip), vehicle: saline): 200 % of control; T/C (dose: 10.0 mg/kg/injection, schedule: Q04DX003 (ip), vehicle: saline): 185 % of control; T/C (dose: 12.0 mg/kg/injection, schedule: Q01DX009 (ip), vehicle: water): 177 % of control; T/C [2]: 204 % of control; T/C (dose: 20.0 mg/kg/injection, schedule: Q01DX005 (ip), vehicle: saline): 158 % of control; T/C (dose: 20.0 mg/kg/injection, schedule: Q04DX003 (ip), vehicle: saline): 190 % of control; T/C [3]: 100 % of control; T/C (dose: 28.8 mg/kg/injection, schedule: Q04DX003 (ip), vehicle: Klucel (hydroxypropylcellulose) (HPC)): 193 % of control; T/C (dose: 40.0 mg/kg/injection, schedule: Q01DX005 (ip), vehicle: saline): 183 % of control; T/C (dose: 43.2 mg/kg/injection, schedule: Q04DX003 (ip), vehicle: Klucel (hydroxypropylcellulose) (HPC)): 196 % of control; T/C (dose: 48.0 mg/kg/injection, schedule: Q04DX003 (ip), vehicle: Klucel (hydroxypropylcellulose) (HPC)): 200 % of control; T/C (dose: 50.0 mg/kg/injection, schedule: Q04DX002 (ip), vehicle: Klucel (hydroxypropylcellulose) (HPC)): 225 % of control and 153 % of control; T/C (dose: 55.0 mg/kg/injection, schedule: Q04DX003 (ip), vehicle: other): 172 % of control; T/C (dose: 72.0 mg/kg/injection, schedule: Q04DX003 (ip), vehicle: Klucel (hydroxypropylcellulose) (HPC)): 188 % of control; T/C (dose: 80.0 mg/kg/injection, schedule: Q01DX005 (ip), vehicle: saline): 103 % of control; T/C (dose: 80.0 mg/kg/injection, schedule: Q01DX009 (ip), vehicle: saline): 186 % of control; T/C (dose: 80.0 mg/kg/injection, schedule: Q04DX003 (ip), vehicle: Klucel (hydroxypropylcellulose) (HPC)): 200 % of control; T/C (dose: 80.0 mg/kg/injection, schedule: Q04DX003 (ip), vehicle: saline): 260 % of control; T/C (dose: 92.0 mg/kg/injection, schedule: Q04DX003 (ip), vehicle: other): 162 % of control; T/C (dose: 120.0 mg/kg/injection, schedule: Q01DX009 (ip), vehicle: saline): 95 % of control; T/C (dose: 133.3 mg/kg/injection, schedule: Q04DX003 (ip), vehicle: Klucel (hydroxypropylcellulose) (HPC)): 170 % of control; T/C (dose: 200.0 mg/kg/injection, schedule: Q04DX003 (ip), vehicle: Klucel (hydroxypropylcellulose) (HPC)): 160 % of control

Q: Which T/C [4] does the source give for `COc1ccc(NC(=O)C(C)C(C)=O)cc1` (centres undefined) here?
A: 91 % of control

Q: What about the T/C [5] of the same compound?
A: 94 % of control

Q: And the T/C [6]?
A: 102 % of control

Q: What about the T/C [7] of the same compound?
A: 98 % of control

Q: What about the T/C [8] of the same compound?
A: 93 % of control

Q: What about the T/C (dose: 100.0 mg/kg/injection, schedule: Q01DX009 (ip), vehicle: saline) of the same compound?
A: 116 % of control

Q: What about the T/C [9] of the same compound?
A: 100 % of control

Q: What about the T/C (dose: 200.0 mg/kg/injection, schedule: Q01DX009 (ip), vehicle: saline) of the same compound?
A: 100 % of control

Q: And the T/C (dose: 200.0 mg/kg/injection, schedule: Q04DX003 (ip), vehicle: saline)?
A: 109 % of control

Q: And the T/C (dose: 400.0 mg/kg/injection, schedule: Q01DX009 (ip), vehicle: saline)?
A: 108 % of control

Q: What about the T/C (dose: 400.0 mg/kg/injection, schedule: Q04DX003 (ip), vehicle: saline) of the same compound?
A: 111 % of control

Q: Which T/C (dose: 6.25 mg/kg/injection, schedule: Q01DX009 (ip), vehicle: saline) does the source give for `NNC(=O)C1CC1` here?
A: 96 % of control

Q: And the T/C [4]?
A: 107 % of control

Q: What about the T/C [5] of the same compound?
A: 100 % of control

Q: And the T/C [6]?
A: 100 % of control

Q: What about the T/C [7] of the same compound?
A: 100 % of control

Q: What about the T/C [8] of the same compound?
A: 100 % of control

Q: What about the T/C [9] of the same compound?
A: 104 % of control

Q: With `c1ccc(-c2nnn(-c3ccccc3)n2)cc1` as the compound, how does the T/C [10] read?
A: 93 % of control

Q: What about the T/C [11] of the same compound?
A: 93 % of control

Q: What does the source list for `CSc1cccc(NC(C)=O)c1`?
A: T/C [12]: 95 % of control; T/C [13]: 104 % of control; T/C [14]: 100 % of control; T/C (dose: 400.0 mg/kg/injection, schedule: Q01DX009 (ip), vehicle: Klucel (hydroxypropylcellulose) (HPC)): 95 % of control; T/C [15]: 109 % of control

Q: How did the T/C [16] turn out when `O=S1(=O)CCN(C2CCCCCCC2)CC1` was run?
A: 115 % of control

Q: What about the T/C [12] of the same compound?
A: 116 % of control

Q: And the T/C (dose: 200.0 mg/kg/injection, schedule: Q01DX009 (ip), vehicle: Klucel (hydroxypropylcellulose) (HPC))?
A: 104 % of control

Q: How did the T/C [17] turn out when `CCCN1CSC(=S)N(Cc2ccccc2)C1` was run?
A: 90 % of control

Q: And the T/C [13]?
A: 95 % of control

Q: And the T/C [11]?
A: 100 % of control

Q: And the T/C [14]?
A: 95 % of control

Q: And the T/C (dose: 400.0 mg/kg/injection, schedule: Q01DX009 (ip), vehicle: saline with Tween-80)?
A: 90 % of control

Q: And the T/C [15]?
A: 95 % of control

Q: What does the source list for `CC(C#N)Oc1cccc2ccccc12` (centres undefined)?
A: T/C (dose: 2.0 mg/kg/injection, schedule: Q01DX009 (ip), vehicle: DMSO): 96 % of control; T/C (dose: 3.0 mg/kg/injection, schedule: Q01DX009 (ip), vehicle: DMSO): 115 % of control; T/C (dose: 4.5 mg/kg/injection, schedule: Q01DX009 (ip), vehicle: DMSO): 110 % of control; T/C (dose: 6.0 mg/kg/injection, schedule: Q01DX009 (ip), vehicle: DMSO): 110 % of control; T/C (dose: 12.0 mg/kg/injection, schedule: Q01DX009 (ip), vehicle: DMSO): 120 % of control; T/C (dose: 12.5 mg/kg/injection, schedule: Q01DX009 (ip), vehicle: DMSO): 88 % of control; T/C (dose: 25.0 mg/kg/injection, schedule: Q01DX009 (ip), vehicle: DMSO): 88 % of control; T/C (dose: 100.0 mg/kg/injection, schedule: Q04DX003 (ip), vehicle: DMSO): 100 % of control

Q: With `Nc1nc(N)c(N=O)c(Nc2ccc(Cl)c(Cl)c2)n1` as the compound, how does the T/C [10] read?
A: 109 % of control

Q: What about the T/C [17] of the same compound?
A: 109 % of control

Q: What about the T/C [11] of the same compound?
A: 95 % of control

Q: Which results are given for `ClC1=C(Cl)[C@@]2(Cl)[C@H]3[C@H]4C[C@H]([C@@H]5O[C@H]45)[C@H]3[C@@]1(Cl)C2(Cl)Cl`?
A: T/C (dose: 3.12 mg/kg/injection, schedule: Q01DX009 (ip), vehicle: Klucel (hydroxypropylcellulose) (HPC)): 91 % of control; T/C (dose: 6.25 mg/kg/injection, schedule: Q01DX009 (ip), vehicle: Klucel (hydroxypropylcellulose) (HPC)): 87 % of control

Q: How did the T/C (dose: 12.5 mg/kg/injection, schedule: Q01DX009 (ip), vehicle: Klucel (hydroxypropylcellulose) (HPC)) turn out when `CCCCCCCCOC(=O)c1[nH]cnc1/N=N\N(C)C` was run?
A: 95 % of control

Q: What about the T/C (dose: 25.0 mg/kg/injection, schedule: Q01DX009 (ip), vehicle: Klucel (hydroxypropylcellulose) (HPC)) of the same compound?
A: 95 % of control

Q: And the T/C [16]?
A: 90 % of control
